In assay [1] the test system is C3H/HeN mice. In words: Maintenance of skin in growth phase in C3H mice with dexamethasone-induced regression phase (black skin area). It counts as in vivo. The procedure:
More specifically, ketamine (Yuhan Co, Ltd, Korea) and rompun (Bayer Korea, Korea) were mixed to a final concentration of 24.2 mg/mL and 1.8 mg/mL, respectively, and then six-week-old female C3H/HeN mice (Orient Bio, Korea) were anesthetized with 80 μL of the anesthetic solution. After anesthesia, the hair on the back was removed using a clipper, and the remaining hair was completely removed using a hair removal cream. Then, twelve mice with clean skin without wounds or remaining hair at the hair removal site were selected. Three mice were placed in each group so that mice with similar hair cycle were placed in each group, and thereafter the experiment was carried out. The phosphate buffered saline or the composition including the substance P at 50% concentration was intradermally injected in an amount of 50 μL each for a total of 200 μL at four sites on the back of the mice, at intervals of 3 to 4 days for 7 days from 6 days after the hair removal using an insulin syringe. […] One-way ANOVA was carried out to examine the difference between the entire groups, and the difference between individual means was analyzed using Tukey's test. […] This statistic was analyzed based on Prism software version 5. […]

The test system of assay [2] is C3H/HeN mice. The experiment in a line: Number of hair follicles in skin of C3H mice with dexamethasone-induced regression phase. It counts as in vivo. As to conditions: in combination with dexamethasone. The procedure:
More specifically, after the procedure of Example 7, the skin tissue of the mice was collected in the direction vertical to the hair follicles and fixed in a fixing solution (4% formaldehyde, Sigma, USA) for 24 hours. The hematoxylin and eosin staining was carried out in the same manner as in Example 8.
Additionally, the number of hair follicles in 1 mm of skin was measured for each group by the Image J program. The number of hair follicles were measured in 10 tissues per group by dividing the skin into D, SC, and W layers, and the results are shown in the graph of FIG. 15.

The subject of assay [3] is C3H/HeN mice. In words: H&E histology, thickness and shape of skin in C3H mice with dexamethasone-induced regression phase. Format: in vivo. As to conditions: in combination with dexamethasone. The procedure: More specifically, after the procedure of Example 7, the skin tissue of the mice was collected in the direction of the hair follicles and fixed in a fixing solution (4% formaldehyde, Sigma, USA) for 24 hours. […] Thereafter, an infiltration process was carried out to fill the penetrant into the tissue, followed by an embedding process to make a paraffin block. For hematoxylin (Sigma, USA) and eosin (Sigma, USA) staining, the paraffin block was cut into 8 μm and attached to slides (microscope slides, Marienfeld, Germany) coated with 2% 3-aminosilane, followed by drying in a 37° C. slide warmer for 12 hours. Thereafter, the slides were immersed in xylene four times for 7 minutes each through a deparaffinization process, and subjected to hydration for staining, and then washed with water. […] One-way ANOVA was carried out to examine the difference between the entire groups, and the difference between individual means was analyzed using Tukey's test. […] This statistic was analyzed based on Prism software version 5.
Additionally, the thickness of the dermis and the subcutaneous layers was confirmed by the Image J program. Skin thickness was measured by dividing the skin into the dermal layer (D), subcutaneous layer (SC), and whole layer (W), and 30 different areas were measured for each group and the results are shown in the graph of FIG. 13.

Assay [4] relates to germinal matrix cells. The experiment in a line: MTT assay of germinal matrix cell proliferation. It counts as cell-based. Particulars: 24 hours, concentration groups 30% and 50%. The procedure: The effect of substance P on germinal matrix cell proliferation was analyzed by MTT assay.
More specifically, 1,000 μL of 0.5×10^5 CFU/mL germinal matrix cell suspension was added to a 12-well culture plate and incubated for 48 hours. The medium (alpha-Minimum Essential Medium, alpha-MEM+10% FBS+10 ng/ml bFGF) was removed, and then 900 μL of a fresh medium (alpha-Minimum Essential Medium, alpha-MEM+5% FBS+5 ng/ml bFGF) was dispensed into each well, and then 100 μL of the composition including substance P diluted with phosphate buffered saline (PBS) was inoculated at concentrations of 30% and 50%. Additionally, substance P (30% and 50%) at the same concentration as the composition including substance P was respectively mixed with phosphate buffered saline and treated. Meanwhile, 100 μL of phosphate buffered saline was used as a negative control group. After inoculation, cells were incubated at 37° C. for 24 hours, and then the medium was removed. Then, the cells were washed with the phosphate buffered saline three times. Subsequently, 900 μL of the medium was mixed with 100 μL of the MTT solution (0.5 mg/mL), and the mixed solution was treated to each well and allowed to react at 37° C. for 3 hours. Finally, the cells were washed with the phosphate buffered saline and stirred in 150 μL of isopropyl alcohol solution for 3 hours, and absorbance at 570 nm was measured.
Background: Formazan colour is commonly taken as a measure of viable cells.

The subject of assay [5] is dermal papilla cells. In words: MTT assay of dermal papilla cell proliferation. Format: cell-based. As to conditions: 24 hours, concentration groups 30% and 50%. The procedure:
The effect of substance P on dermal papilla cell proliferation was analyzed by MTT assay.
More specifically, 1,000 μL of 0.5×10^5 CFU/mL dermal papilla cell suspension was added to a 12-well culture plate and incubated for 48 hours. The medium (alpha-Minimum Essential Medium, alpha-MEM+10% FBS) was removed, and then 900 μL of a fresh medium (alpha-Minimum Essential Medium, alpha-MEM +5% FBS) was dispensed into each well, and then 100 μL of the composition including substance P diluted with phosphate buffered saline (PBS) was inoculated at concentrations of 30% and 50% (the substance P was contained at a concentration of 6 mg/mL and 10 mg/mL in the composition with concentrations of 30% and 50%, respectively). Additionally, substance P (30% and 50%) at the same concentrations as the composition including substance P was respectively mixed with phosphate buffered saline and treated.
Meanwhile, 100 μL of phosphate buffered saline was used as a negative control group. After inoculation, cells were incubated at 37° C. for 24 hours, and then the medium was removed. Then, the cells were washed with phosphate buffered saline three times. […] Finally, the cells were washed with phosphate buffered saline and stirred in 150 μL of isopropyl alcohol solution for 3 hours, and absorbance at 570 nm was measured.

Where no end group is shown, it is not given here.

Regarding `Nc1cc(N2CCCCC2)nc(N)[n+]1[O-]` [minoxidil 2%, minoxidil], in assay [1] (from black skin area), the “inhibition of the induction of the regression phase by dexamethasone” value was 46%. The “black-skinned back relative to the total skin” value in assay [1] (in combination with dexamethasone, 17 days after hair removal, Image J) amounted to 47%. Also, in assay [2], the “number of hair follicles maintained in the dermis compared to phosphate buffered saline” value is “about 1.4 times”, the “number of hair follicles maintained in the subcutaneous compared to phosphate buffered saline” value is given as “about 56 times” and the “number of hair follicles maintained in the whole skin compared to phosphate buffered saline” value is reported as “about 3.7 times”. Moreover, the “inhibition of the regression phase of the subcutaneous layer (SC) compared to phosphate buffered saline” value in assay [3] was found to be 233%.
“Arg-Pro-Lys-Pro-Gln-Gln-Phe-Phe-Gly-Leu-Met-NH2 (RPKPQQFFGLM-NH2) [substance P, in phosphate buffered saline as comparison group]”: in assay [4], the “cell proliferation of germinal matrix cells” value is given as not above 105%. Also, in assay [5], the “cell proliferation of dermal papilla cells” value is on record as 107%.
